Experimental data: ChEMBL document CHEMBL1201862, “PubChem BioAssay data set” (2004)
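Growth conditions: 96-well plates. Treatment: test compound, 48 hours, 5 concentrations. Analysis: linear interpolation between bracketing concentrations; unreached endpoints set to highest concentration. The concentration for 50% growth inhibition is given as GI50.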 The source made the active and inactive calls. Rule as the data show it: active = GI50 up to about 1.1 µM and inactive = higher.

Experiments:
Assay in all cases: DTP human tumour cell line panel, 48 h
[1] = system: A498
[2] = system: ACHN
[3] = system: CAKI-1
[4] = system: CCRF-CEM
[5] = system: EKVX
[6] = system: Hs-578T
[7] = system: K562
[8] = system: LOX IMVI
[9] = system: MDA-MB-231
[10] = system: NCI-H522
[11] = system: NCI/ADR-RES
[12] = system: OVCAR-8
[13] = system: RPMI-8226
[14] = system: RXF 393
[15] = system: T47D
[16] = system: TK-10
[17] = system: U-251
[18] = system: SNB-19
[19] = system: UACC-62
[20] = system: Malme-3M

Measured: GI50

O=C(O)c1cccc2c1/C(=N/Nc1ccccc1)CC2
inactive: [1] > 100 µM | [2] > 100 µM | [3] 26.1 µM | [4] > 100 µM | [5] > 100 µM | [6] > 100 µM | [7] > 100 µM | [8] > 100 µM | [9] > 100 µM | [10] > 100 µM | [11] > 100 µM | [12] > 100 µM | [13] > 100 µM | [14] > 100 µM | [15] 9.84 µM | [16] > 100 µM | [17] > 100 µM

CC1=NN(C(=O)CSc2nc3ccc(I)cc3c(=O)n2Cc2ccccc2)C(=O)C1
inactive: [1] 22.4 µM | [2] 28.8 µM | [3] 31.8 µM | [4] 27.9 µM | [5] 23.6 µM | [6] 7.89 µM | [7] 23.8 µM | [8] 16.4 µM | [9] 16.9 µM | [10] 7.05 µM | [11] 20.9 µM | [12] 48.8 µM | [13] 35 µM | [14] 25.9 µM | [18] 33.7 µM | [15] 19.1 µM | [16] 47.6 µM | [17] 25.4 µM | [19] 26.4 µM

NCCCN(CCCCN(CCCN)Cc1ccc2ccccc2c1)Cc1ccc2ccccc2c1
inactive: [1] 2.1 µM | [2] 1.9 µM | [3] 1.65 µM | [4] 27 µM | [5] 1.77 µM | [6] 1.63 µM | [7] 3.51 µM | [8] 2.1 µM | [9] 3.18 µM | [20] 1.76 µM | [11] 18.7 µM | [12] 1.82 µM | [13] 2.74 µM | [14] 1.95 µM | [18] 1.53 µM | [15] 2.42 µM | [16] 2.21 µM | [17] 1.8 µM | [19] 2.08 µM

Cc1c(N2C(=O)/C(=C/c3ccc(N(CCC#N)CCC#N)cc3)N=C2c2ccccc2)c(=O)n(-c2ccccc2)n1C
inactive: [1] > 100 µM | [3] > 100 µM | [4] 59.6 µM | [5] > 100 µM | [6] > 100 µM | [8] > 100 µM | [9] > 100 µM | [20] > 100 µM | [11] > 100 µM | [12] > 100 µM | [13] > 100 µM | [14] > 100 µM | [18] > 100 µM | [15] > 100 µM | [17] > 100 µM | [19] > 100 µM

C/C=C(/C)C(=O)O[C@H]1[C@H]2[C@@H]([C@@H](OC(C)=O)[C@H](C)C(=O)[C@@]34C[C@@H](C)C(=O)[C@]3(/C=C(\C)[C@H]1OC(C)=O)O4)C2(C)C
inactive: [1] 4.75 µM | [2] 3.8 µM | [3] 4.42 µM | [5] 3.83 µM | [6] 5.64 µM | [7] 2.6 µM | [8] 3.09 µM | [9] 3.72 µM | [10] 3.28 µM | [11] 4.12 µM | [12] 3.48 µM | [13] 3.35 µM | [14] 3.6 µM | [18] 4.32 µM | [15] 2.31 µM | [16] 3.45 µM | [17] 5.7 µM | [19] 3.35 µM
active: [4] 0.463 µM

COc1ccc(S(=O)(=O)c2nnc(S(=O)(=O)Cc3ccccc3)s2)cc1
inactive: [1] 18.6 µM | [2] 12.7 µM | [3] 17.5 µM | [5] 22.4 µM | [6] 21.3 µM | [7] 5.92 µM | [9] 17.5 µM | [10] 8.18 µM | [11] 43.7 µM | [12] 21.9 µM | [13] 6.59 µM | [14] 16.2 µM | [18] 20.8 µM | [15] 29.6 µM | [16] 15.7 µM | [17] 19.5 µM

CCOC(=O)c1cc(C2CCN(Cc3ccccc3)C2=O)c(C(=O)C(=[N+]=[N-])C(C)=O)[nH]1 (centres undefined)
inactive: [1] > 100 µM | [3] > 100 µM | [4] > 100 µM | [5] > 100 µM | [6] > 100 µM | [7] > 100 µM | [8] > 100 µM | [9] > 100 µM | [20] > 100 µM | [11] > 100 µM | [12] > 100 µM | [13] > 100 µM | [14] > 100 µM | [18] > 100 µM | [15] > 100 µM | [17] > 100 µM | [19] > 100 µM

COc1ccc(/C=N/NS(=O)(=O)c2ccc(/C=C3\NC(=O)N(C)C3=O)cc2)cc1
inactive: [1] 70.6 µM | [2] > 100 µM | [3] > 100 µM | [4] 78.3 µM | [5] 89.9 µM | [6] 30.3 µM | [7] > 100 µM | [8] > 100 µM | [9] 38.8 µM | [20] > 100 µM | [11] > 100 µM | [12] 56.2 µM | [13] > 100 µM | [14] 38.6 µM | [18] 80.9 µM | [15] > 100 µM | [16] 49.3 µM | [17] > 100 µM | [19] 98.9 µM

Cc1cc2c(cc1-c1cc3c(cc1C)C(C(C)C)=C(O)C(=O)/C3=C\Nc1nc(-c3ccccc3)cs1)/C(=C/Nc1nc(-c3ccccc3)cs1)C(=O)C(O)=C2C(C)C
inactive: [1] 35.6 µM | [2] 14.9 µM | [3] 35.7 µM | [4] 12.6 µM | [5] 18.2 µM | [6] 37.3 µM | [7] 11.7 µM | [9] 10.8 µM | [20] 33.8 µM | [11] 26.1 µM | [12] 25.6 µM | [13] 33.9 µM | [14] 15.3 µM | [18] 17.1 µM | [15] 31.9 µM | [17] 14.4 µM | [19] 16.7 µM

CCOP(=O)(/C=C/n1cnc2c(=O)n(C(C)=O)c(N)nc21)OCC
inactive: [1] > 100 µM | [2] > 100 µM | [3] > 100 µM | [4] > 100 µM | [5] > 100 µM | [6] > 100 µM | [7] > 100 µM | [8] > 100 µM | [9] > 100 µM | [10] 67.9 µM | [11] > 100 µM | [12] > 100 µM | [13] > 100 µM | [14] > 100 µM | [18] > 100 µM | [15] > 100 µM | [16] > 100 µM | [17] > 100 µM | [19] > 100 µM

NCCCN(CCCN(C(=O)Nc1ccccc1)c1ccccc1)C(=O)Nc1ccccc1
inactive: [1] 87.1 µM | [2] 55.7 µM | [4] 59.2 µM | [5] 58.7 µM | [6] 32.7 µM | [7] 34.9 µM | [8] 23.5 µM | [9] 59.6 µM | [20] 20 µM | [10] 20.2 µM | [11] 69.5 µM | [12] 49.3 µM | [13] 27.7 µM | [14] 24.5 µM | [18] 52.4 µM | [15] 28.2 µM | [16] 38.4 µM | [17] 36.6 µM | [19] 23.1 µM

CC1=NN(c2cccc(Cl)c2)C2(SCC(=O)N2c2nc3ccccc3s2)C1=CC=Cc1ccccc1 (centres undefined)
inactive: [1] 20.7 µM | [2] 22.3 µM | [3] 31.1 µM | [4] 3.4 µM | [5] 54.2 µM | [6] 27.7 µM | [7] 13.3 µM | [8] 35.3 µM | [9] 27.9 µM | [10] 26.7 µM | [11] 34.8 µM | [12] 35.6 µM | [13] 23 µM | [14] 25.5 µM | [15] 34.4 µM | [16] 62.4 µM | [17] 17.8 µM

O=C(NC(=S)Nc1ccc(Br)cc1)c1ccc2c(c1)Sc1ccccc1O2
inactive: [1] 27.4 µM | [2] 60.1 µM | [4] > 100 µM | [6] 45.7 µM | [7] > 100 µM | [8] > 100 µM | [9] 58.6 µM | [20] > 100 µM | [10] > 100 µM | [11] > 100 µM | [12] 50.1 µM | [18] 39.3 µM | [15] 63.7 µM | [16] 29.4 µM | [17] 37 µM | [19] 68.2 µM

Oc1ccc(Cl)cc1C1=NC(/N=C\c2ccccc2)=NC(c2ccccc2)C1 (centres undefined)
inactive: [1] 73.6 µM | [3] 4.3 µM | [4] > 100 µM | [5] > 100 µM | [6] > 100 µM | [7] > 100 µM | [9] 35.6 µM | [10] 12.1 µM | [11] 21.4 µM | [12] 20 µM | [14] 66.1 µM | [15] 13.3 µM | [16] > 100 µM | [17] 30.1 µM | [19] > 100 µM

Cc1n[nH]c(=O)n1/N=C/c1cccnc1
inactive: [1] > 100 µM | [2] > 100 µM | [3] > 100 µM | [4] > 100 µM | [5] > 100 µM | [6] > 100 µM | [7] > 100 µM | [8] > 100 µM | [9] > 100 µM | [20] > 100 µM | [10] > 100 µM | [11] > 100 µM | [12] > 100 µM | [13] > 100 µM | [18] > 100 µM | [15] > 100 µM | [16] > 100 µM | [17] > 100 µM | [19] > 100 µM
